Reference: patent publication US7772221B2, “Diaminopropane derived macrocycles as inhibitors of β amyloid production” (Bristol-Meyers Squibb Company, priority 2007, dated 2010)
pIC50: −log10 of the molar value. Where two headings read alike, the source gives them in different places.

Experiments:
[1] = rcm bond
[2] = rcm bond, 1,2-dichloroethane, 60.0 °C
BACE1 enzyme = target: T1, BACE1 enzyme (Homo sapiens, UniProt P56817); assay: Radioligand displacement assay with a radiolabeled BACE inhibitor; type: binding; settings: HEK293-9B.A1 cell homogenate overexpressing BACE1, 1 nM radioligand, pH 5.0, 1.5 hr at 25° C.; read-out: Activity Rating (activity based on IC50 values)
T1 construct: endogenous in cells; washed 48,000 x g membrane pellet / cell homogenate
T1 sequence (P56817 46-501): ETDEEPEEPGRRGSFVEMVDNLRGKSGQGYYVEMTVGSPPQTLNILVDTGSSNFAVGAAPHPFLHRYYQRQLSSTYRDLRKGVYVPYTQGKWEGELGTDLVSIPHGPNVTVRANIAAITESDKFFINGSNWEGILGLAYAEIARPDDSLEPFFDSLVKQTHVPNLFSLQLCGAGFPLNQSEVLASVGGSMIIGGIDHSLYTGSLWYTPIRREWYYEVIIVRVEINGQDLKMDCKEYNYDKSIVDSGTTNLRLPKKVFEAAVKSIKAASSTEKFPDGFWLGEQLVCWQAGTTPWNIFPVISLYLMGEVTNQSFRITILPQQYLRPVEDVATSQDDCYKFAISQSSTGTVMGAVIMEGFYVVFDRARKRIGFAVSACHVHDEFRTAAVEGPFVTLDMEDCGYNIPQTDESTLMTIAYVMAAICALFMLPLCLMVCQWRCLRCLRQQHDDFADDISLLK
Source text: There are a number of methods by which inhibitors of the BACE enzyme can be identified experimentally. The enzyme can be obtained from membrane samples from natural tissues or cultured cells or can be expressed recombinantly in a host cell by well known methods of molecular biology. The whole enzyme or a portion thereof can be expressed, for example, in bacterial, insect or mammalian cells to obtain a catalytically active enzyme species. The enzymatic activity and/or ligand binding capability of the enzyme can be assessed within these membrane samples, or the enzyme can be purified to varying extents. As an illustrative example, the nucleic acid sequence encoding the pro and catalytic domains of human BACE can be appended on the 5′ end with an untranslated and signal sequence from the gene for acetylcholinesterase, and on the 3′ end with a sequence encoding a poly-histidine tag. This cDNA can then be expressed in Drosophila melanogaster S2 cells in which the signal and pro sequences of the transcribed/translated protein are removed by cellular proteases and the catalytic domain, appended by a C-terminal poly-histidine tag, is secreted out into the cellular medium. The enzyme can then be purified from the culture medium by nickel affinity chromatography by methods well known to those trained in the art [Mallender, W. et al., “Characterization of recombinant, soluble beta-secretase from an insect cell expression system.” Mol. Pharmacol. 2001, 59: 619-626]. Similar strategies for expressing and purifying various forms of BACE in bacterial, mammalian and other cell types would be known to one skilled in the art. A preferred method for determining the potency of a test compound in binding to the BACE enzyme is by monitoring the displacement of a suitable radioligand.
Radioligand displacement assays with a radiolabeled BACE inhibitor (WO 2004 013098, compound 3, where the methoxy group is substituted for C(^3H)3) were carried out using standard methods (Keen, M. (1999) in Receptor Binding Techniques (Walker, J. M. ed) p. 106 Humana Press, Totowa, N.J.). The HEK293-9B.A1 cell line, which overexpresses the BACE1 enzyme, was derived from HEK293 cells (Simmons, N. L. (1990) A cultured human renal epithelioid cell line responsive to vasoactive intestinal peptide. Exp. Physiol. 75:309-19.) by RAGE™ (Harrington, J. J. et al. (2001) Creation of genome-wide protein expression libraries using random activation of gene expression. Nat. Biotechnol. 19:440-5.; U.S. Pat. Nos. 6,410,266 and 6,361,972). T225 flask cultures of HEK293-9B.A1 were grown to 80% confluency in DMEM supplemented with 2 mM L-glutamine, 10 μg/mL penicillin, 10 μg/mL streptomycin, 3 μg/mL puromycin, 100 nM methotrexate, and 10% fetal bovine serum (Invitrogen, Carlsbad, Calif.), harvested, and resuspended at 2×10^8 cells per 10 mL of lysis buffer consisting of 50 mM HEPES pH 7.0 containing a protease inhibitor cocktail of AEBSF 104 μM, aprotinin 80 nM, leupeptin 2 μM, bestatin 4 μM, pepstatin A 1.5 μM, and E-64 1.4 μM (0.1% of protease inhibitor cocktail P8340, Sigma-Aldrich, St. Louis, Mo.) at 4° C. The resuspended cells were homogenized using a Polytron (Brinkman, Westbury, N.Y.) at setting 6 for 10 sec., then centrifuged at 48,000×g for 10 min. The resulting pellet was washed by repeating the resuspension, homogenization and centrifugation steps. The final pellet was resuspended in buffer at 4° C. to yield a total protein concentration of 5 mg/mL, then aliquots were frozen in liquid nitrogen for further storage at −70° C. Immediately before carrying out a binding assay, an aliquot of cell homogenate was thawed and diluted to a concentration of 100 μg/mL in assay buffer consisting of 50 mM HEPES pH 5.0 and 0.1% CHAPSO. […]

SMILES: CCCC(CCC)C(=O)N(C)[C@H]1CC=CCO[C@@H]2C[C@H](NC[C@@H](O)[C@H](Cc3ccccc3)NC1=O)c1cc(OC)ccc12
- ring closure, yield after HPLC ([1]; from C=CCO[C@@H]1C[C@H](NC[C@@H](O)[C@H](Cc2ccccc2)NC(=O)[C@H](CC=C)N(C)C(=O)C(CCC)CCC)c2cc(OC)ccc21, 15-membered ring, Hoveyda-Grubbs II (9 mol%), DCM, 25.0 °C, 16.0 h): 34%

SMILES: CC(C)C[C@@H]1COCC=CCC[C@H](N(C)S(=O)(=O)CCC(F)(F)F)C(=O)N[C@@H](Cc2cc(F)cc(F)c2)[C@H](O)CN1 [Example 42, N-((3R,6R,7S,10S)-7-(3,5-difluorobenzyl)-6-hydroxy-3-isobutyl-9-oxo-1-oxa-4,8-diazacyclopentadec-13-en-10-yl)-3,3,3-trifluoro-N-methylpropane-1-sulfonamide]
- ring closure, isolated yield ([2]; from C=CCC[C@@H](C(=O)N[C@@H](Cc1cc(F)cc(F)c1)[C@H](O)CN[C@@H](COCC=C)CC(C)C)N(C)S(=O)(=O)CCC(F)(F)F, 15-membered ring, Hoveyda-Grubbs (16 mol%), 19.0 mM, 16.0 h): 19%
- pIC50 (BACE1 enzyme): < 6.30

SMILES: CCCC[C@H](C)C(=O)N(C)[C@H]1CC=CCOc2ccc(OC)cc2CNC[C@@H](O)[C@H](Cc2ccccc2)NC1=O [Example 59, (S)-N-((6S,9S,10R)-9-benzyl-10-hydroxy-15-methoxy-7-oxo-2,5,6,7,8,9,10,11,12,13-decahydrobenzo[b][1,5,9]oxadiazacyclopentadecin-6-yl)-N,2-dimethylhexanamide]
- ring closure, yield after HPLC ([1]; from C=CCOc1ccc(OC)cc1CNC[C@@H](O)[C@H](Cc1ccccc1)NC(=O)[C@H](CC=C)N(C)C(=O)[C@@H](C)CCCC, 15-membered ring, Hoveyda-Grubbs II (21 mol%), DCM, 4.3 mM, 40.0 °C, 4.0 h): 49%
- pIC50 (BACE1 enzyme): < 6.30

SMILES: CCCOc1ccc2c(c1)[C@@H]1C[C@H]2OCC=CCCCC(=O)N[C@@H](Cc2cc(F)cc(F)c2)[C@H](O)CN1
- ring closure, yield after HPLC ([1]; from C=CCCCC(=O)N[C@@H](Cc1cc(F)cc(F)c1)[C@H](O)CN[C@H]1C[C@@H](OCC=C)c2ccc(OCCC)cc21, 16-membered ring, Hoveyda-Grubbs II, DCM, 25.0 °C, 16.0 h): 20%

SMILES: CCCCCS(=O)(=O)N(C)[C@H]1CC=CCCCc2ccc(C)cc2CNC[C@@H](O)[C@H](Cc2cc(F)cc(F)c2)NC1=O
- ring closure, isolated yield ([2]; from (S)-N-((2S,3R)-1-(3,5-difluorophenyl)-3-hydroxy-4-(5-methyl-2-(pent-4-enyl)benzylamino)butan-2-yl)-2-(N-methylpentylsulfonamido) pent-4-enamide, 16-membered ring, Hoveyda-Grubbs (20 mol%), 6.3 mM): 18%

SMILES: COc1ccc2c(c1)[C@@H]1CC2N(C(=O)OCc2ccccc2)CCC=CC[C@H](N(C)C(C)=O)C(=O)N[C@@H](Cc2ccccc2)[C@H](O)CN1
- ring closure, yield after HPLC ([1]; from C=CCCN(C(=O)OCc1ccccc1)C1C[C@H](NC[C@@H](O)[C@H](Cc2ccccc2)NC(=O)[C@H](CC=C)N(C)C(C)=O)c2cc(OC)ccc21, 16-membered ring): 83%

SMILES: CCCCCS(=O)(=O)N(C)[C@H]1CC=CCO[C@@H]2Cc3ccc(OC)cc3[C@H]2NC[C@@H](O)[C@H](Cc2ccccc2)NC1=O (racemic) [Example 26, pentane-1-sulfonic acid ((1R,7S,10S,11R,14R)-10-benzyl-11-hydroxy-17-methoxy-8-oxo-2-oxa-9,13-diaza-tricyclo[12.7.0.0^15,20]henicosa-4,15(20),16,18-tetraen-7-yl)-methyl-amide and pentane-1-sulfonic acid ((1S,7S,10S,11R,14S)-10-benzyl-11-hydroxy-17-methoxy-8-oxo-2-oxa-9,13-diaza-tricyclo[12.7.0.0^15,20]henicosa-4,15(20),16,18-tetraen-7-yl)-methyl-amide]
- pIC50 (BACE1 enzyme): < 6.30

SMILES: CC(C)Oc1ccc2c(c1)[C@@H]1C[C@H]2OCC=CCCCC(=O)N[C@@H](Cc2cc(F)cc(F)c2)[C@H](O)CN1 [Example 78, (1S,4R,5S,15R)-5-(3,5-difluoro-benzyl)-4-hydroxy-19-isopropoxy-14-oxa-2,6-diaza-tricyclo[13.6.1.0^16,21]docosa-11,16(21),17,19-tetraen-7-one]
- pIC50 (BACE1 enzyme): > 8.00

SMILES: CC(C)C[C@@H]1NC(=O)CCCC=CCO[C@@H]2C[C@H](NC[C@H]1O)c1cc(OC(C)C)ccc12 [Example 79, (1S,4R,5S,15R)-4-hydroxy-5-isobutyl-19-isopropoxy-14-oxa-2,6-diaza-tricyclo[13.6.1.0^16,21]docosa-11,16(21),17,19-tetraen-7-one]
- pIC50 (BACE1 enzyme): < 6.30

SMILES: CCCCCS(=O)(=O)N(C)[C@H]1CC=CCCCc2ccc(C(F)(F)F)cc2CNC[C@@H](O)[C@H](Cc2cc(F)cc(F)c2)NC1=O [Example 40, N-((4R,5S,8S)-5-(3,5-difluorobenzyl)-4-hydroxy-17-(trifluoromethyl)-7-oxo-1,2,3,4,5,6,7,8,9,12,13,14-dodecahydrobenzo[g][1,5]diazacyclohexadecin-8-yl)-N-methylpentane-1-sulfonamide]
- ring closure, isolated yield ([2]; from C=CCCCc1ccc(C(F)(F)F)cc1CNC[C@@H](O)[C@H](Cc1cc(F)cc(F)c1)NC(=O)[C@H](CC=C)N(C)S(=O)(=O)CCCCC, 16-membered ring, Hoveyda-Grubbs (19 mol%), 6.5 mM, 16.0 h): 32%
- pIC50 (BACE1 enzyme): 6.30 to 8.00
